From US10519134B2, “Pyrazole compounds and methods of making and using same” (Lundbeck La Jolla Research Center, Inc., priority 2015, dated 2019)

Columns and labels:
MAGL [1] = biological target: T1, MAGL (Mus musculus, UniProt O35678); test: Mouse brain proteomes from inhibitor treated mice (oral gavage, sacrificed 4 h after administration); assay type: in vivo; details: read-out: MAGL % inh. 5 mg/kg
T1 construct: Proteomes (mouse brain membrane fraction or cell lysates); from tissue; host or cells: mouse brain membrane fraction (or cell lysates)
T1 sequence (O35678 1-303): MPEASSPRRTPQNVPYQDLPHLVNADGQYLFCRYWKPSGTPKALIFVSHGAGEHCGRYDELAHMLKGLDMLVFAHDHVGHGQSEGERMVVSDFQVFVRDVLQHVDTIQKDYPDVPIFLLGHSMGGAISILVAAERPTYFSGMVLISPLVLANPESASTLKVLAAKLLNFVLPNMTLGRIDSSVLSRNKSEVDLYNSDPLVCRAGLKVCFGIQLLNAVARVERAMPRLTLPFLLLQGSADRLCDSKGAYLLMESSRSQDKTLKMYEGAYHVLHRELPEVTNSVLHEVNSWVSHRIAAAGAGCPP
Description: Compounds are tested to assess their MAGL and other serine hydrolase activity using the following in vitro and in vivo assays.
Preparation of Mouse Brain Proteomes from Inhibitor Treated Mice.
Inhibitors were administered to wild-type C57Bl/6J by oral gavage in a vehicle of polyethylene glycol. Each animal was sacrificed 4 h following administration and brain proteomes were prepared and analyzed according to previously established methods (See Niphakis, M. J., et al. (2011) ACS Chem. Neurosci. and Long, J. Z., et al. Nat. Chem. Biol. 5:37-44)

MAGL [2] = biological target: T1, MAGL; test: In vitro competitive activity-based protein profiling (mouse), MAGL gel band; assay type: biochemical; details: for IC50: mouse; for inhibition at 1 µM: read-out: MAGL % inh. 1 μM
Method in brief: (§1)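 Mouse brain membrane proteome or cell lysate (1.0 mg/mL protein) preincubated 30 min at 37 °C with varying inhibitor concentrations, then labelled 30 min at 37 °C with FP-Rh or HT-01 probe (50 μM stock). After SDS-PAGE, activity taken from fluorescent intensity of the MAGL and FAAH gel bands.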

FAAH = biological target: T2, FAAH (Mus musculus, UniProt O08914); test: In vitro competitive activity-based protein profiling (mouse), FAAH gel band; assay type: biochemical; details: for IC50: mouse; for inhibition at 1 µM: read-out: FAAH % inh. 1 μM
T2 construct: Proteomes (mouse brain membrane fraction or cell lysates); from tissue; host or cells: mouse brain membrane fraction (or cell lysates)
T2 sequence (O08914 1-579): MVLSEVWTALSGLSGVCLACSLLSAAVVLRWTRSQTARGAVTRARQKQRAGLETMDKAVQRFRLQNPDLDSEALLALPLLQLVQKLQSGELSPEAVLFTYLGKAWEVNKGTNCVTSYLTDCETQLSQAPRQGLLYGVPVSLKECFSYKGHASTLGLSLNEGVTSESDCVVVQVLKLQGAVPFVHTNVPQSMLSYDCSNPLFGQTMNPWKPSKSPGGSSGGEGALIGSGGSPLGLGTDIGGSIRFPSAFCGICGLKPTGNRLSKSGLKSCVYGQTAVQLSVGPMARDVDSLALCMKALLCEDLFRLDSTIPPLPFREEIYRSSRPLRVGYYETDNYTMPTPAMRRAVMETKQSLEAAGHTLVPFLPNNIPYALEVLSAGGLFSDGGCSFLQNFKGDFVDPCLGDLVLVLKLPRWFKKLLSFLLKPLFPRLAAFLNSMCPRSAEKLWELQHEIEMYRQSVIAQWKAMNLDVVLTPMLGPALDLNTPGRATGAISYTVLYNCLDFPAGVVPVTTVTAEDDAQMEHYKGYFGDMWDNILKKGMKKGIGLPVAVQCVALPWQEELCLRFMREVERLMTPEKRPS
Method in brief: as §1

SMILES | inhibition at 5 mg/kg (MAGL [1]) [%] | IC50 (MAGL [2]) [nM] | inhibition at 1 µM (MAGL [2]) [%] | IC50 (FAAH) [nM] | inhibition at 1 µM (FAAH) [%]
CC(=O)Nc1ccn(C(=O)N2CCN(Cc3ccc(C(F)(F)F)cc3N3CC4CCC(C3)O4)CC2)n1 [Example 40, N-(1-(4-(2-(8-oxa-3-azabicyclo[3.2.1]octan-3-yl)-4-(trifluoromethyl)benzyl)piperazine-1-carbonyl)-1H-pyrazol-3-yl)acetamide] | 25 to 50 | ≤ 100 | ≥ 75 | 1000 to 10000 | 0 to 25
CC(=O)Nc1ccn(C(=O)N2CCN(Cc3ccc(C(F)(F)F)cc3N3CCN(S(C)(=O)=O)CC3)CC2)n1 [Example 41, N-(1-(4-(2-(4-(methylsulfonyl)piperazin-1-yl)-4-(trifluoromethyl)benzyl)piperazine-1-carbonyl)-1H-pyrazol-3-yl)acetamide] | 0 to 25 | ≤ 100 | ≥ 75 | 1000 to 10000 | 0 to 25
CC(=O)Nc1ccn(C(=O)N2CCN(Cc3ccc(C(F)(F)F)cc3N3CCN(C(C)=O)CC3)CC2)n1 [Example 42, N-(1-(4-(2-(4-acetylpiperazin-1-yl)-4-(trifluoromethyl)benzyl)piperazine-1-carbonyl)-1H-pyrazol-3-yl)acetamide] | 0 to 25 | ≤ 100 | ≥ 75 | 1000 to 10000 | 0 to 25
CC(=O)Nc1ccn(C(=O)N2CCN(Cc3ccc(C(F)(F)F)cc3N3CCC4(CC3)CCN(S(C)(=O)=O)C4)CC2)n1 [Example 43, N-(1-(4-(2-(2-(methylsulfonyl)-2,8-diazaspiro[4.5]decan-8-yl)-4-(trifluoromethyl)benzyl)piperazine-1-carbonyl)-1H-pyrazol-3-yl)acetamide] | 0 to 25 | ≤ 100 | ≥ 75 | 1000 to 10000 | 0 to 25
CC(=O)Nc1ccn(C(=O)N2CCN(Cc3ccc(C(F)(F)F)cc3N3CCC4(C3)CN(S(C)(=O)=O)C4)CC2)n1 [Example 44, N-(1-(4-(2-(2-(methylsulfonyl)-2,6-diazaspiro[3.4]octan-6-yl)-4-(trifluoromethyl)benzyl)piperazine-1-carbonyl)-1H-pyrazol-3-yl)acetamide] | 0 to 25 | ≤ 100 | ≥ 75 | 1000 to 10000 | 0 to 25
CC(=O)Nc1ccn(C(=O)N2CCN(Cc3ccc(C(F)(F)F)cc3N3CCN(C4CC4)CC3)CC2)n1 [Example 47, N-(1-(4-(2-(4-cyclopropylpiperazin-1-yl)-4-(trifluoromethyl)benzyl)piperazine-1-carbonyl)-1H-pyrazol-3-yl)acetamide] | 25 to 50 | ≤ 100 | ≥ 75 | 1000 to 10000 | 0 to 25
CCN1CCN(c2cc(C(F)(F)F)ccc2CN2CCN(C(=O)n3ccc(NC(C)=O)n3)CC2)CC1 [Example 48, N-(1-(4-(2-(4-ethylpiperazin-1-yl)-4-(trifluoromethyl)benzyl)piperazine-1-carbonyl)-1H-pyrazol-3-yl)acetamide] | 0 to 25 | ≤ 100 | ≥ 75 | 1000 to 10000 | 0 to 25
CC(=O)Nc1ccn(C(=O)N2CCN(Cc3ccc(C(F)(F)F)cc3N3CC4COCC4C3)CC2)n1 (stereo not drawn) [Example 49, N-(1-(4-(2-(dihydro-1H-furo[3,4-c]pyrrol-5(3H,6H,6aH)-yl)-4-(trifluoromethyl)benzyl)piperazine-1-carbonyl)-1H-pyrazol-3-yl)acetamide] | 0 to 25 | ≤ 100 | ≥ 75 | 1000 to 10000 | 0 to 25
CC(=O)Nc1ccn(C(=O)N2CCN(Cc3ccc(Cl)cc3N3CCCCC3)CC2)n1 [Example 50, N-(1-(4-(4-chloro-2-(piperidin-1-yl)benzyl)piperazine-1-carbonyl)-1H-pyrazol-3-yl)acetamide] | ≥ 75 | ≤ 100 | ≥ 75 | 1000 to 10000 | 0 to 25
CC(=O)Nc1ccn(C(=O)N2CCN(Cc3ccc(Cl)cc3N3CC4CCC(C3)O4)CC2)n1 [Example 51, N-(1-(4-(2-(8-oxa-3-azabicyclo[3.2.1]octan-3-yl)-4-chlorobenzyl)piperazine-1-carbonyl)-1H-pyrazol-3-yl)acetamide] | 25 to 50 | ≤ 100 | ≥ 75 | 1000 to 10000 | 0 to 25
CC(=O)Nc1ccn(C(=O)N2CCN(Cc3ccc(Cl)cc3N3CCN(C(C)=O)CC3)CC2)n1 [Example 53, N-(1-(4-(2-(4-acetylpiperazin-1-yl)-4-chlorobenzyl)piperazine-1-carbonyl)-1H-pyrazol-3-yl)acetamide] | 0 to 25 | ≤ 100 | ≥ 75 | 1000 to 10000 | 0 to 25
CC(=O)Nc1ccn(C(=O)N2CCN(Cc3ccc(Cl)cc3N3CCC4(CC3)CCN(S(C)(=O)=O)C4)CC2)n1 [Example 54, N-(1-(4-(4-chloro-2-(2-(methylsulfonyl)-2,8-diazaspiro[4.5]decan-8-yl)benzyl)piperazine-1-carbonyl)-1H-pyrazol-3-yl)acetamide] | 0 to 25 | ≤ 100 | ≥ 75 | 1000 to 10000 | 0 to 25
CC(=O)Nc1ccn(C(=O)N2CCN(Cc3ccc(Cl)cc3N3CCC4(C3)CN(S(C)(=O)=O)C4)CC2)n1 [Example 55, N-(1-(4-(4-chloro-2-(2-(methylsulfonyl)-2,6-diazaspiro[3.4]octan-6-yl)benzyl)piperazine-1-carbonyl)-1H-pyrazol-3-yl)acetamide] | 0 to 25 | ≤ 100 | ≥ 75 | 1000 to 10000 | 0 to 25
CC(=O)Nc1ccn(C(=O)N2CCN(Cc3ccc(Cl)cc3N3CCC4(CCOCC4)C3)CC2)n1 [Example 56, N-(1-(4-(4-chloro-2-(8-oxa-2-azaspiro[4.5]decan-2-yl)benzyl)piperazine-1-carbonyl)-1H-pyrazol-3-yl)acetamide] | 25 to 50 | ≤ 100 | ≥ 75 | 1000 to 10000 | 0 to 25
CC(=O)Nc1ccn(C(=O)N2CCN(Cc3ccc(Cl)cc3N3CCN(C4CC4)CC3)CC2)n1 [Example 58, N-(1-(4-(4-chloro-2-(4-cyclopropylpiperazin-1-yl)benzyl)piperazine-1-carbonyl)-1H-pyrazol-3-yl)acetamide] | ≥ 75 | ≤ 100 | ≥ 75 | 1000 to 10000 | 0 to 25
CC(=O)Nc1ccn(C(=O)N2CCN(Cc3ccc(Cl)cc3N3CC4COCC4C3)CC2)n1 (stereo not drawn) [Example 60, N-(1-(4-(4-chloro-2-(dihydro-1H-furo[3,4-c]pyrrol-5(3H,6H,6aH)-yl)benzyl)piperazine-1-carbonyl)-1H-pyrazol-3-yl)acetamide] | 0 to 25 | ≤ 100 | ≥ 75 | 1000 to 10000 | 0 to 25
CC(=O)Nc1ccn(C(=O)N2CCC3(CCCN3Cc3cc(N4CCCC4)cc(C(F)(F)F)c3)CC2)n1 [Example 61, N-(1-(1-(3-(pyrrolidin-1-yl)-5-(trifluoromethyl)benzyl)-1,8-diazaspiro[4.5]decane-8-carbonyl)-1H-pyrazol-3-yl)acetamide] | 0 to 25 | ≤ 100 | ≥ 75 | 1000 to 10000 | 0 to 25
CC(=O)Nc1ccn(C(=O)N2CCC3(CCCN3Cc3cc(N4C5CCC4COC5)cc(C(F)(F)F)c3)CC2)n1 [Example 62, N-(1-(1-(3-(3-oxa-8-azabicyclo[3.2.1]octan-8-yl)-5-(trifluoromethyl)benzyl)-1,8-diazaspiro[4.5]decane-8-carbonyl)-1H-pyrazol-3-yl)acetamide] | 0 to 25 | ≤ 100 | ≥ 75 | 1000 to 10000 | 0 to 25
